Tested on: T1, GmSULTR1;2b
T1 construct: C-terminal STAS domain
Test: […]-sulfate uptake in sul1 sul2 yeast cells, Michaelis-Menten fit
Format: cell-based, Glycine max
Details: pH 6.0; proton-coupled uptake; yeast CP154-7A; labelled compound

Question: How did the Km turn out when O=S(=O)(O)O [sulfate] was run?
Answer: The Km was 9.5 ± 1.7 µM.

— PMC4874011, “Identification and functional characterization of the sulfate transporter gene GmSULTR1;2b in soybean” (BMC Genomics, 2016)
